Tests used:
Experiment in all cases: relative viability (nuclei count vs DMSO), 5 days (fraction); higher = more cells survive
Entinostat + Pictilisib = compound: Nc1ccccc1NC(=O)c1ccc(CNC(=O)OCc2cccnc2)cc1 [Entinostat] + CS(=O)(=O)N1CCN(Cc2cc3nc(-c4cccc5[nH]ncc45)nc(N4CCOCC4)c3s2)CC1 [Pictilisib] (partner 1 µM)
Procedure, shortened: (§1)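 Lung cancer cell lines in 1536-well plates got either a single drug or a fixed anchor-drug dose together with five library-drug doses (not always all listed) in √10 steps, by pin tool, on the day after seeding. Nuclei were counted after 5 days, and relative viability is the treated-to-vehicle ratio of nuclei counts. Values are medians of duplicate plates.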

SGI-1776 + Decitabine = compound: CN1CCC(CNc2ccc3ncc(-c4cccc(OC(F)(F)F)c4)n3n2)CC1 [SGI-1776] + Nc1ncn([C@H]2C[C@H](O)[C@@H](CO)O2)c(=O)n1 [Decitabine] (partner 2 µM)
Procedure, shortened: as §1

[1] = compound: C1COCCN1C2=NC(=NC3=C2OC4=C3C=CC=N4)C5=CC(=CC=C5)NC(=O)C6=CN=C(C=C6)N + Cc1nc(NC(=O)N2CCC[C@H]2C(N)=O)sc1-c1ccnc(C(C)(C)C(F)(F)F)c1 [Alpelisib] (partner 2 µM)
Procedure, shortened: as §1

Entinostat + Phenformin = compound: Nc1ccccc1NC(=O)c1ccc(CNC(=O)OCc2cccnc2)cc1 [Entinostat] + N=C(N)NC(=N)NCCc1ccccc1 [Phenformin] (partner 250 µM)
Procedure, shortened: as §1

| Cell Line | relative viability (Entinostat + Pictilisib; first compound 0.02 µM) | relative viability (Entinostat + Pictilisib; first compound 0.06325 µM) | relative viability (Entinostat + Pictilisib; first compound 0.2 µM) | relative viability (Entinostat + Pictilisib; first compound 0.6325 µM) | relative viability (Entinostat + Pictilisib; first compound 2 µM) | relative viability (SGI-1776 + Decitabine; first compound 0.08 µM) | relative viability (SGI-1776 + Decitabine; first compound 0.8 µM) | relative viability (SGI-1776 + Decitabine; first compound 2.53 µM) | relative viability (SGI-1776 + Decitabine; first compound 8 µM) | relative viability ([1]; first compound 0.02 µM) | relative viability ([1]; first compound 0.06325 µM) | relative viability ([1]; first compound 0.2 µM) | relative viability ([1]; first compound 0.6325 µM) | relative viability ([1]; first compound 2 µM) | relative viability (Entinostat + Phenformin; first compound 0.02 µM) | relative viability (Entinostat + Phenformin; first compound 0.06325 µM) | relative viability (Entinostat + Phenformin; first compound 0.2 µM) | relative viability (Entinostat + Phenformin; first compound 0.6325 µM) | relative viability (Entinostat + Phenformin; first compound 2 µM) |
| --- | --- | --- | --- | --- | --- | --- | --- | --- | --- | --- | --- | --- | --- | --- | --- | --- | --- | --- | --- |
| NCI-H1915 | 0.899 | 0.94 | 0.844 | 0.328 | 0.218 | 0.271 | 0.258 | 0.268 | 0.221 | 1.01 | 1.17 | 1.08 | 1.05 | 0.971 | 0.375 | 0.346 | 0.372 | 0.261 | 0.256 |
| NCI-H647 | 0.508 | 0.755 | 0.469 | 0.314 | 0.093 | 0.409 | 0.392 | 0.44 | 0.339 | 1.21 | 1.33 | 0.996 | 1.21 | 0.356 | 0.54 | 0.555 | 0.405 | 0.158 | 0.0748 |
| NCI-H2126 | 0.44 | 0.545 | 0.47 | 0.301 | 0.298 | 0.575 | 0.576 | 0.559 | 0.54 | 0.778 | 0.726 | 0.732 | 0.753 | 0.627 | 0.53 | 0.512 | 0.535 | 0.452 | 0.363 |
| NCI-H727 | 0.357 | 0.355 | 0.689 | 0.2 | 0.219 | 0.875 | 1.01 | 1.01 | 0.613 | 0.472 | 0.418 | 0.51 | 0.693 | 0.341 | 0.457 | 0.689 | 0.581 | 0.436 | 0.43 |
| EMC-BAC-2 | 0.579 | 0.595 | 0.628 | 0.352 | 0.289 | 0.964 | 0.994 | 1.08 | 0.915 | 0.794 | 0.867 | 0.785 | 0.707 | 0.589 | 0.523 | 0.533 | 0.449 | 0.416 | 0.293 |
| NCI-H1437 | 0.415 | 0.255 | 0.182 | 0.147 | 0.112 | 0.553 | 0.598 | 0.645 | 0.495 | 0.952 | 1.09 | 0.788 | 0.962 | 0.423 | 0.288 | 0.261 | 0.199 | 0.197 | 0.215 |
| NCI-H2347 | 0.494 | 0.321 | 0.333 | 0.216 | 0.345 | 0.631 | 0.673 | 0.639 | 0.577 | 1.06 | 1.03 | 1.06 | 0.998 | 0.842 | 0.378 | 0.243 | 0.234 | 0.181 | 0.151 |
| NCI-H1666 | 0.44 | 0.403 | 0.34 | 0.258 | 0.258 | 0.8 | 0.737 | 0.729 | 0.663 | 1.02 | 0.906 | 0.794 | 0.775 | 0.549 | 0.56 | 0.609 | 0.581 | 0.497 | 0.443 |
| NCI-H1993 | 0.878 | 0.876 | 0.916 | 0.888 | 0.833 | 0.56 | 0.664 | 0.522 | 0.503 | 0.651 | 0.624 | 0.691 | 0.697 | 0.595 | 0.489 | 0.579 | 0.495 | 0.536 | 0.563 |
| COR-L23 | 0.714 | 0.728 | 0.588 | 0.257 | 0.141 | 0.445 | 0.456 | 0.466 | 0.342 | 0.958 | 0.876 | 0.844 | 0.868 | 0.589 | 0.433 | 0.429 | 0.389 | 0.245 | 0.144 |
| HCC-44 | 0.641 | 0.644 | 0.392 | 0.176 | 0.417 | 0.964 | 0.938 | 0.941 | 0.921 | 0.803 | 0.879 | 1.04 | 0.807 | 0.499 | 0.204 | 0.197 | 0.129 | 0.11 | 0.0548 |
| LU99A | 0.289 | 0.326 | 0.334 | 0.271 | 0.231 | 0.859 | 0.872 | 0.94 | 0.876 | 0.608 | 0.46 | 0.41 | 0.379 | 0.284 | 0.783 | 0.891 | 0.722 | 0.609 | 0.545 |
| NCI-H460 | 0.328 | 0.411 | 0.333 | 0.132 | 0.108 | 0.476 | 0.61 | 0.49 | 0.494 | 0.393 | 0.5 | 0.395 | 0.349 | 0.0947 | 0.511 | 0.479 | 0.298 | 0.0601 | 0.0314 |
| NCI-H650 | 0.934 | 0.914 | 0.75 | 0.579 | 0.269 | 0.337 | 0.32 | 0.341 | 0.313 | 1.07 | 1.12 | 1.06 | 1.04 | 0.824 | 0.491 | 0.466 | 0.431 | 0.455 | 0.318 |
| NCI-H1975 | 0.206 | 0.245 | 0.228 | 0.151 | 0.139 | 0.43 | 0.391 | 0.431 | 0.377 | 0.677 | 0.705 | 0.548 | 0.567 | 0.352 | 0.376 | 0.348 | 0.342 | 0.238 | 0.19 |
| NCI-H1355 | 0.473 | 0.411 | 0.389 | 0.254 | 0.201 | 0.342 | 0.313 | 0.416 | 0.359 | 0.833 | 0.933 | 0.858 | 0.747 | 0.759 | 0.48 | 0.439 | 0.502 | 0.368 | 0.332 |
| NCI-H1755 | 0.383 | 0.408 | 0.367 | 0.204 | 0.205 | 0.714 | 0.695 | 0.717 | 0.622 | 1.07 | 1 | 0.965 | 0.863 | 0.397 | 0.605 | 0.613 | 0.569 | 0.513 | 0.349 |

From the supplement of paper PMC10307832
